Experimental data published in ChEMBL document CHEMBL1687771 (Antimicrob Agents Chemother, 2010).
≈ marks a conversion by molar mass, not a printed value. Calls of active or inactive are those of the source. No cut-off for these calls is given here.

Assays:
Mus musculus [1] = assay: AUC at 24 hrs in Bacillus anthracis Ames infected in BALB/c mouse anthrax spore inhalation infection model at 50 mg/kg, sc bid for 14 days administered 24 hrs post bacterial challenge; assay type: functional, organism-based; design: dose 50 mg/kg
Mus musculus [2] = assay: AUC in Bacillus anthracis Ames infected in BALB/c mouse anthrax spore inhalation infection model at 50 mg/kg, sc bid for 14 days administered 24 hrs post bacterial challenge; assay type: functional, organism-based; design: dose 50 mg/kg
Bacillus anthracis [3] = assay: Antimicrobial activity against Bacillus anthracis Ames by CLSI broth microdilution method; assay type: functional
Bacillus anthracis [4] = assay: Antimicrobial activity against Bacillus anthracis Ames infected in BALB/c mouse anthrax spore inhalation infection model assessed as decrease in tissue bacterial burden at 50 mg/kg, sc bid for 21 days administered 24 hrs post bacterial challenge measured 43 days post bacterial challenge; assay type: functional, organism-based; design: dose 50 mg/kg
Bacillus anthracis [5] = assay: Antimicrobial activity against Bacillus anthracis Ames infected in BALB/c mouse anthrax spore inhalation infection model assessed as decrease in tissue bacterial burden at 50 mg/kg, sc bid for 14 days administered 24 hrs post bacterial challenge measured 43 days post bacterial challenge; assay type: functional, organism-based; design: dose 50 mg/kg

CCCCCCCCCC(=O)N[C@@H](Cc1c[nH]c2ccccc12)C(=O)N[C@H](CC(N)=O)C(=O)N[C@@H](CC(=O)O)C(=O)N[C@@H]1C(=O)NCC(=O)N[C@@H](CCCN)C(=O)N[C@@H](CC(=O)O)C(=O)N[C@H](C)C(=O)N[C@@H](CC(=O)O)C(=O)NCC(=O)N[C@H](CO)C(=O)N[C@@H]([C@H](C)CC(=O)O)C(=O)N[C@@H](CC(=O)c2ccccc2N)C(=O)O[C@@H]1C
AUC (Mus musculus [1]): 750000 ng·h/mL | AUC (Mus musculus [2]): > 375000 ng·h/mL | MIC50 (Bacillus anthracis [3]): 2 µg/mL (≈ 1.23 µM) | MIC90 (Bacillus anthracis [3]): 4 µg/mL (≈ 2.47 µM) | Activity (Bacillus anthracis [4]): Active | Activity (Bacillus anthracis [5]): Active
